Measured values taken from PubChem BioAssay AID330 (DTP/NCI, 2004).
Values joined by “and” are separate entries in the source; they are usually repeats but may differ in a detail not shown here. Identical values can stand only once. Inconclusive results and toxic doses are left out. How the source made its calls: active means survival T/C of 150% or more; inactive means T/C below 125% in these data.

Tested on: P388 leukemia ip, CD2F1 mice, survival T/C
Assay: NCI In Vivo Anticancer Drug Screen. Data for tumor model P388 Leukemia (intraperitoneal) in CD2F1 (CDF1) mice
Conditions: endpoint: median survival time, higher = longer survival
Procedure, shortened: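 Mice carrying the transplanted tumor received test compound or vehicle. Survival was recorded in each group, and the value is the treated-group measurement divided by that of the vehicle-treated control group.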

[1] = dose: 100.0 mg/kg/injection, schedule: Q04DX003 (ip), vehicle: saline with Tween-80
[2] = dose: 60.0 mg/kg/injection, schedule: Q01DX005 (ip), vehicle: Klucel (hydroxypropylcellulose) (HPC)
[3] = dose: 120.0 mg/kg/injection, schedule: Q01DX005 (ip), vehicle: Klucel (hydroxypropylcellulose) (HPC)
[4] = dose: 50.0 mg/kg/injection, schedule: Q01DX009 (ip), vehicle: saline with Tween-80
[5] = dose: 100.0 mg/kg/injection, schedule: Q01DX009 (ip), vehicle: saline with Tween-80
[6] = dose: 200.0 mg/kg/injection, schedule: Q01DX009 (ip), vehicle: saline with Tween-80
[7] = dose: 12.5 mg/kg/injection, schedule: Q01DX009 (ip), vehicle: other
[8] = dose: 25.0 mg/kg/injection, schedule: Q01DX009 (ip), vehicle: other
[9] = dose: 50.0 mg/kg/injection, schedule: Q01DX009 (ip), vehicle: other
[10] = dose: 100.0 mg/kg/injection, schedule: Q01DX009 (ip), vehicle: other
[11] = dose: 200.0 mg/kg/injection, schedule: Q01DX009 (ip), vehicle: other
[12] = dose: 50.0 mg/kg/injection, schedule: Q01DX009 (ip), vehicle: Klucel (hydroxypropylcellulose) (HPC)
[13] = dose: 100.0 mg/kg/injection, schedule: Q01DX009 (ip), vehicle: Klucel (hydroxypropylcellulose) (HPC)
[14] = dose: 200.0 mg/kg/injection, schedule: Q01DX009 (ip), vehicle: Klucel (hydroxypropylcellulose) (HPC)
[15] = dose: 100.0 mg/kg/injection, schedule: Q04DX002 (ip), vehicle: saline with Tween-80
[16] = dose: 200.0 mg/kg/injection, schedule: Q04DX002 (ip), vehicle: saline with Tween-80
[17] = dose: 400.0 mg/kg/injection, schedule: Q04DX002 (ip), vehicle: saline with Tween-80

Measured: T/C

CCCCc1ccc(Sc2cccc3c2C(=O)c2c(Sc4ccc(CCCC)cc4)cccc2C3=O)cc1
inactive: [1] 95 % of control | dose: 200.0 mg/kg/injection, schedule: Q04DX003 (ip), vehicle: saline with Tween-80 90 % of control | dose: 400.0 mg/kg/injection, schedule: Q04DX003 (ip), vehicle: saline with Tween-80 86 % of control

O=c1[nH]c2c([N+](=O)[O-])cc(Cl)cc2nc1/C=C(\O)c1ccccc1
inactive: [2] 105 % of control | [3] 106 % of control

C/C1=C(O[Si](C)(C)C)/C(O[Si](C)(C)C)=C(/C)CCCC1
inactive: [4] 100 % of control | [5] 94 % of control | [6] 97 % of control

OC(c1cc(-c2ccc(C(F)(F)F)cc2)nc(C(F)(F)F)c1)C1CCCCN1 (stereo not given)
inactive: dose: 6.25 mg/kg/injection, schedule: Q01DX009 (ip), vehicle: saline 101 % of control | dose: 12.5 mg/kg/injection, schedule: Q01DX009 (ip), vehicle: saline with Tween-80 95 % of control | dose: 12.5 mg/kg/injection, schedule: Q01DX009 (ip), vehicle: saline 103 % of control | dose: 25.0 mg/kg/injection, schedule: Q01DX009 (ip), vehicle: saline with Tween-80 100 % of control | dose: 25.0 mg/kg/injection, schedule: Q01DX009 (ip), vehicle: saline 107 % of control

C=C(C#N)CSc1c(Cl)c(Cl)c(Cl)c(Cl)c1Cl
inactive: dose: 25.0 mg/kg/injection, schedule: Q04DX003 (ip), vehicle: Klucel (hydroxypropylcellulose) (HPC) 88 % of control | dose: 50.0 mg/kg/injection, schedule: Q04DX003 (ip), vehicle: Klucel (hydroxypropylcellulose) (HPC) 91 % of control | dose: 100.0 mg/kg/injection, schedule: Q04DX003 (ip), vehicle: Klucel (hydroxypropylcellulose) (HPC) 93 % of control and 95 % of control | dose: 200.0 mg/kg/injection, schedule: Q04DX003 (ip), vehicle: Klucel (hydroxypropylcellulose) (HPC) 100 % of control and 103 % of control | dose: 400.0 mg/kg/injection, schedule: Q04DX003 (ip), vehicle: Klucel (hydroxypropylcellulose) (HPC) 105 % of control

O=C1c2ccccc2C(Cl)(c2ccc(Cl)cc2)c2ccc(Cl)cc21 (stereo not given)
inactive: dose: 25.0 mg/kg/injection, schedule: Q01DX005 (ip), vehicle: saline with Tween-80 107 % of control

CC1=Nc2ccc(Cl)cc2N=C(C)C1
inactive: dose: 100.0 mg/kg/injection, schedule: Q01DX001 (ip), vehicle: saline 106 % of control | dose: 200.0 mg/kg/injection, schedule: Q01DX001 (ip), vehicle: saline 107 % of control | dose: 400.0 mg/kg/injection, schedule: Q01DX001 (ip), vehicle: saline 100 % of control

CC1(C)N=C(N)N=C(N)N1c1ccc(OCC(=O)N2CCOCC2)cc1
inactive: dose: 50.0 mg/kg/injection, schedule: Q04DX003 (ip), vehicle: saline 100 % of control | dose: 66.0 mg/kg/injection, schedule: Q01DX009 (ip), vehicle: saline sonified 110 % of control | dose: 100.0 mg/kg/injection, schedule: Q01DX009 (ip), vehicle: saline sonified 120 % of control | dose: 100.0 mg/kg/injection, schedule: Q04DX003 (ip), vehicle: saline 95 % of control

O=C(CCCSCCCl)Nc1c([N+](=O)[O-])cc([N+](=O)[O-])cc1S(=O)(=O)O
inactive: dose: 3.13 mg/kg/injection, schedule: Q04DX003 (ip), vehicle: DMSO 110 % of control | dose: 6.25 mg/kg/injection, schedule: Q04DX003 (ip), vehicle: DMSO 111 % of control | dose: 50.0 mg/kg/injection, schedule: Q04DX003 (ip), vehicle: DMSO 118 % of control | dose: 100.0 mg/kg/injection, schedule: Q04DX003 (ip), vehicle: olive oil, sesame oil, peanut oil 120 % of control | dose: 150.0 mg/kg/injection, schedule: Q04DX003 (ip), vehicle: DMSO 114 % of control

CC1(C)CC(C)(OC(=O)c2ccccc2Cl)N=N1 (stereo not given)
inactive: dose: 11.0 mg/kg/injection, schedule: Q01DX009 (ip), vehicle: other 97 % of control | [7] 107 % of control | dose: 16.5 mg/kg/injection, schedule: Q01DX009 (ip), vehicle: other 97 % of control | [8] 108 % of control | dose: 37.5 mg/kg/injection, schedule: Q01DX009 (ip), vehicle: other 116 % of control | [9] 103 % of control | [10] 112 % of control | [11] 116 % of control

N#CC(/C=C/c1ccccc1)Nc1ccccc1N (stereo not given)
inactive: dose: 100.0 mg/kg/injection, schedule: Q01DX001 (ip), vehicle: saline with Tween-80 100 % of control | dose: 400.0 mg/kg/injection, schedule: Q01DX001 (ip), vehicle: saline with Tween-80 100 % of control

CCc1ccc(S(=O)(=O)O)cc1
inactive: [4] 100 % of control | [5] 94 % of control | [6] 98 % of control

NC(=S)N/N=C/c1cc([N+](=O)[O-])ccc1Cl
inactive: dose: 50.0 mg/kg/injection, schedule: Q01DX009 (ip), vehicle: suspension in saline 94 % of control | dose: 100.0 mg/kg/injection, schedule: Q01DX009 (ip), vehicle: suspension in saline 92 % of control | dose: 200.0 mg/kg/injection, schedule: Q01DX009 (ip), vehicle: suspension in saline 94 % of control

C=CC(=O)C1OC2OC(C)(C)OC2C2OC(C)(C)OC12 (stereo not given)
inactive: dose: 50.0 mg/kg/injection, schedule: Q01DX005 (ip), vehicle: saline with Tween-80 93 % of control | dose: 100.0 mg/kg/injection, schedule: Q01DX005 (ip), vehicle: saline with Tween-80 97 % of control | dose: 200.0 mg/kg/injection, schedule: Q01DX005 (ip), vehicle: saline with Tween-80 98 % of control

CCCNC(=NC)c1ccc(NC(=O)c2ccc(C(=O)Nc3ccc(C(=NC)NCCC)cc3)cc2)cc1
inactive: dose: 5.2 mg/kg/injection, schedule: Q01DX010 (ip), vehicle: saline 109 % of control | dose: 18.0 mg/kg/injection, schedule: Q01DX010 (ip), vehicle: saline 118 % of control

COc1ccc(C(OCC2CC3C=CC2C3)OCC2CC3C=CC2C3)cc1 (stereo not given)
inactive: [7] 110 % of control | [8] 111 % of control | [9] 105 % of control | [10] 114 % of control | [11] 114 % of control

COc1ccc(Cc2nnc(C)c3c(C)[nH]nc23)cc1
inactive: [12] 91 % of control | [13] 91 % of control | [14] 86 % of control

OC1(c2ccccc2)C2CC1C2 (stereo not given)
inactive: dose: 100.0 mg/kg/injection, schedule: Q04DX002 (ip), vehicle: saline 104 % of control | dose: 200.0 mg/kg/injection, schedule: Q04DX002 (ip), vehicle: saline 101 % of control | dose: 400.0 mg/kg/injection, schedule: Q04DX002 (ip), vehicle: saline 102 % of control

Cc1nn(C(=O)c2ccncc2)c(C)c1N=Nc1ccccc1[N+](=O)[O-]
inactive: [12] 102 % of control | [13] 96 % of control | [14] 98 % of control

CC(=O)O.[Bi]
inactive: [2] 97 % of control | [3] 96 % of control | dose: 240.0 mg/kg/injection, schedule: Q01DX005 (ip), vehicle: Klucel (hydroxypropylcellulose) (HPC) 99 % of control

CN1C(=O)C(O)(CC(=O)c2ccccc2)c2ccccc21 (stereo not given)
inactive: [4] 93 % of control | [5] 93 % of control | [6] 90 % of control

CCOC(=O)C1=C(C)N(Cc2ccccc2)C(C)=C(C(=O)OCC)C1(C)C
inactive: [5] 104 % of control | [6] 118 % of control | dose: 400.0 mg/kg/injection, schedule: Q01DX009 (ip), vehicle: saline with Tween-80 118 % of control

C1CC[N-]CC1.C1CC[N-]CC1.[Cl][Pt+2][Cl]
inactive: dose: 25.0 mg/kg/injection, schedule: Q01DX005 (ip), vehicle: Klucel (hydroxypropylcellulose) (HPC) 119 % of control and 120 % of control

O=Cc1ccc(C=O)cc1
inactive: [15] 98 % of control | [16] 102 % of control | [17] 102 % of control

C=Cn1c([N+](=O)[O-])cnc1/C=C/c1ccc(C(=O)NCCO)cc1
inactive: [15] 96 % of control | [16] 93 % of control | [17] 93 % of control

Clc1ccc(C(c2ccccc2)N2CCNCC2)cc1 (stereo not given)
inactive: dose: 25.0 mg/kg/injection, schedule: Q04DX003 (ip), vehicle: saline with Tween-80 99 % of control | dose: 50.0 mg/kg/injection, schedule: Q04DX003 (ip), vehicle: saline with Tween-80 113 % of control | [1] 102 % of control
